Earlier results, collected in US10835570B2, “Dietary supplement” (priority 2016, dated 2020).

Tested on: receptors ERb and ERa
Details: oestrogen-like affinity, ERb versus ERa

- affinity greater for receptors ERb than for receptors ERa: 20 times
SMILES: O=c1c(-c2ccc(O)cc2)coc2cc(O)cc(O)c12 [genistein]
